Laboratory results taken from PubChem BioAssay (NCI).
Where “and” joins values, the source holds several entries; their conditions need not be identical. Identical values can stand only once.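 A five-concentration, 48-hour dose response in 96-well plates underlies each endpoint, interpolated linearly between surrounding concentrations. Abbreviation: GI50, concentration required for 50% inhibition of growth. At the TGI there is no net growth.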

How the values were obtained:
Test in all cases: NCI tumour cell line growth inhibition, 48 h
NCI-H226 lung = tested on: NCI-H226 lung
NCI-H460 lung = tested on: NCI-H460 lung
SF-539 CNS = tested on: SF-539 CNS
SN12C renal = tested on: SN12C renal
SK-MEL-2 melanoma = tested on: SK-MEL-2 melanoma
RPMI-8226 leukemia = tested on: RPMI-8226 leukemia
SF-268 CNS = tested on: SF-268 CNS
KM12 colon = tested on: KM12 colon
HOP-62 NSCLC = tested on: HOP-62 NSCLC
CCRF-CEM leukemia = tested on: CCRF-CEM leukemia

Structure (SMILES)	GI50 (NCI-H226 lung) [µM]	TGI (NCI-H226 lung)	GI50 (NCI-H460 lung)	TGI (NCI-H460 lung) [µM]	GI50 (SF-539 CNS)	TGI (SF-539 CNS)	GI50 (SN12C renal)	TGI (SN12C renal)	GI50 (SK-MEL-2 melanoma) [µM]	TGI (SK-MEL-2 melanoma)	GI50 (RPMI-8226 leukemia) [µM]	TGI (RPMI-8226 leukemia)	GI50 (SF-268 CNS)	TGI (SF-268 CNS)	GI50 (KM12 colon)	TGI (KM12 colon) [µM]	GI50 (HOP-62 NSCLC)	TGI (HOP-62 NSCLC)	GI50 (CCRF-CEM leukemia)	TGI (CCRF-CEM leukemia)
N.N.N.N.N.N#N.[Cl-].[Os+7]	> 100	> 100 µM	> 100 µM	> 100	> 100 µM	> 100 µM	> 100 µM	> 100 µM	> 100	> 100 µM	> 100	> 100 µM	> 100 µM	> 100 µM	> 100 µM	> 100	–	–	–	–
O=[N+]([O-])c1cccc(/C=C/c2ccccn2)c1	33.5	> 100 µM	34.5 µM	> 100	26.6 µM	> 100 µM	38.8 µM	> 100 µM	–	–	40.2	> 100 µM	24.7 µM	> 100 µM	24.2 µM	> 100	40.7 µM	> 100 µM	7.91 µM	43 µM
NCCn1ccc(NC(c2ccccc2)(c2ccccc2)c2ccccc2)nc1=O	–	32.8 µM	–	37.9	–	31.3 µM	–	42.3 µM	–	33.4 µM	–	46.3 µM	–	31.4 µM	–	52.3	–	73.8 µM	–	–
O=C(c1ccccn1)c1nc(-c2ccc(Cl)c(Cl)c2)nc2ccc(Cl)cc12	–	> 100 µM	–	> 100	–	56.4 µM	–	–	–	> 100 µM	–	> 100 µM	–	–	–	> 100	–	> 100 µM	–	> 100 µM
CCN1CCC2(CC1)NC(=O)c1c(c3ccc(Cl)c(Cl)c3n1C)C2C#N (stereo unspecified)	5.67	23.7 µM	2.34 µM	6.45	1.89 µM	4.52 µM	4.1 µM	16.3 µM	2.02	4.42 µM	1.55	4.59 µM	–	–	–	–	1.61 µM	3.13 µM	3 µM	13.1 µM
CC1(C(=O)NCCN(CCNC(=O)C2(C)CC3(C)CC(C)(C2)C(=O)NC3=O)CCNC(=O)C2(C)CC3(C)CC(C)(C2)C(=O)NC3=O)CC2(C)CC(C)(C1)C(=O)NC2=O (stereo unspecified)	–	–	–	> 100	–	> 100 µM	–	> 100 µM	–	> 100 µM	–	> 100 µM	–	–	–	> 100	–	> 100 µM	–	> 100 µM
Cc1cccc(Cl)c1NC(N)=S	–	> 100 µM	–	> 100	–	> 100 µM	–	> 100 µM	–	–	–	58.8 µM	–	> 100 µM	–	> 100	–	> 100 µM	–	> 100 µM
CCc1nc(-n2c(CC)nc3ccccc3c2=O)nc(N)c1-c1ccc(Cl)cc1	> 100	> 100 µM	14 µM	> 100	30.4 µM	> 100 µM	> 46.1 µM	> 100 µM	> 100	> 100 µM	1.24	> 32 µM	> 40.4 µM	> 100 µM	38.5 µM	> 100	44.8 µM	> 100 µM	–	–
COc1cc(-c2cc(-c3nc4cc(Cl)c(Cl)cc4[nH]3)[nH]n2)cc(OC)c1OC	2.29	8.8 µM	3.33 µM	12.9	3.28 µM	13.4 µM	3.05 µM	13.4 µM	–	–	1.75	4.39 µM	3.95 µM	14.9 µM	3.56 µM	13.9	3.43 µM	11 µM	2.35 µM	6.75 µM
Clc1ccccc1-c1nc(-c2ccncc2)no1	–	> 100 µM	–	> 100	–	> 100 µM	–	> 100 µM	–	> 100 µM	–	> 100 µM	–	> 100 µM	–	> 100	–	> 100 µM	–	–
C=CCC(N[C@@H](CO)c1ccccc1)c1ccccn1 (stereo partly specified)	> 100	> 100 µM	–	–	> 100 µM	> 100 µM	22.9 µM	> 100 µM	> 100	> 100 µM	32.7	> 100 µM	–	–	> 100 µM	> 100	> 100 µM	> 100 µM	74.4 µM	> 100 µM
CN(C)c1ccc(/C=C/c2ccnc3ccc4ccccc4c23)cc1	–	–	–	> 100	–	> 100 µM	–	> 100 µM	–	> 100 µM	–	> 100 µM	–	> 100 µM	–	> 100	–	> 100 µM	–	> 100 µM
CCC(C(=O)c1cccs1)C(O)(C(F)(F)F)C(F)(F)F (stereo unspecified)	–	> 100 µM	–	> 100	–	> 100 µM	–	> 100 µM	–	> 100 µM	–	> 100 µM	–	> 100 µM	–	> 100	–	> 100 µM	–	–
COc1ccc(OC)c(/C=C/C(=O)C(C)(C)C)c1	–	35.4 µM	–	> 100	–	38.4 µM	–	45.4 µM	–	–	–	40.7 µM	–	–	–	52.9	–	50.8 µM	–	44.5 µM
COc1ccc2[nH]c3c(C)c4cc[n+](C)cc4c(C)c3c2c1	0.111	1.52 µM and 1.13 µM and 0.572 µM	0.402 µM and 0.998 µM	–	–	1.65 µM and 1.46 µM and 1.32 µM	0.0483 µM and 0.0691 µM	797 nM [middle of 4 runs]	4.87	13.8 µM [middle of 4 runs]	–	–	0.0504 µM and 0.0385 µM	–	0.34 µM and 0.817 µM	–	0.311 µM and 0.24 µM	2.24 µM [middle of 4 runs]	0.706 µM and 1.92 µM	–
CN(C)CCNC(=O)c1cccc2cc([N+](=O)[O-])ccc12	–	–	0.39 µM	2.05	0.886 µM and 0.146 µM	2.34 µM and 0.606 µM	1.69 µM and 0.178 µM	7.57 µM and 2.24 µM	–	–	–	2.29 µM and 0.705 µM	1.87 µM and 0.22 µM	10.9 µM and 1.16 µM	–	–	1.19 µM and 0.224 µM	4.13 µM and 1.23 µM	0.719 µM and 0.141 µM	6.07 µM and 0.939 µM
O=C1NC2(CCCC2)/C(=N\O)C12CCCC2	–	–	–	> 100	–	> 100 µM	–	> 100 µM	–	> 100 µM	–	–	–	> 100 µM	–	> 100	–	> 100 µM	–	> 100 µM
COc1ccc2nc3ccccc3c(NCCCCCN(CCCl)CCCl)c2c1	–	0.801 µM	–	0.192	–	–	–	–	–	–	–	0.206 µM	–	0.329 µM	–	2.14	–	0.525 µM	–	0.118 µM
Clc1ccccc1C1N2CCCCC2[C@@H]2c3[nH]c4ccccc4c3CCN12 (stereo partly specified)	–	–	–	35.6	–	30.9 µM	–	30.9 µM	–	34.1 µM	–	66.6 µM	–	38.4 µM	–	–	–	59.3 µM	–	52.9 µM
COC1=C(C)C(=O)C2=C(C1=O)C(CO)N1C(C#N)C3CC4C(C1C2N1CCOC41)N3C (stereo unspecified)	–	–	–	–	–	–	–	–	–	0.0451 µM and 0.038 µM and 0.0364 µM	0.0177	–	–	0.94 µM and 0.408 µM and 1.98 µM	0.0043 µM and 0.0305 µM	–	0.00557 µM	0.973 µM and 0.902 µM and 3.34 µM	–	–
